What follows are compounds tested against T1, human TLR8 (Homo sapiens, UniProt Q9NR97) (assay: TLR8 inhibition reporter assay (HEK-Blue SEAP)). Settings: HEK-Blue cells overexpressing human TLR8, R848 15.9 μM, 22 hour incubation.
T1 construct: host or cells: HEK-Blue cells
T1 sequence (Q9NR97 27-1041): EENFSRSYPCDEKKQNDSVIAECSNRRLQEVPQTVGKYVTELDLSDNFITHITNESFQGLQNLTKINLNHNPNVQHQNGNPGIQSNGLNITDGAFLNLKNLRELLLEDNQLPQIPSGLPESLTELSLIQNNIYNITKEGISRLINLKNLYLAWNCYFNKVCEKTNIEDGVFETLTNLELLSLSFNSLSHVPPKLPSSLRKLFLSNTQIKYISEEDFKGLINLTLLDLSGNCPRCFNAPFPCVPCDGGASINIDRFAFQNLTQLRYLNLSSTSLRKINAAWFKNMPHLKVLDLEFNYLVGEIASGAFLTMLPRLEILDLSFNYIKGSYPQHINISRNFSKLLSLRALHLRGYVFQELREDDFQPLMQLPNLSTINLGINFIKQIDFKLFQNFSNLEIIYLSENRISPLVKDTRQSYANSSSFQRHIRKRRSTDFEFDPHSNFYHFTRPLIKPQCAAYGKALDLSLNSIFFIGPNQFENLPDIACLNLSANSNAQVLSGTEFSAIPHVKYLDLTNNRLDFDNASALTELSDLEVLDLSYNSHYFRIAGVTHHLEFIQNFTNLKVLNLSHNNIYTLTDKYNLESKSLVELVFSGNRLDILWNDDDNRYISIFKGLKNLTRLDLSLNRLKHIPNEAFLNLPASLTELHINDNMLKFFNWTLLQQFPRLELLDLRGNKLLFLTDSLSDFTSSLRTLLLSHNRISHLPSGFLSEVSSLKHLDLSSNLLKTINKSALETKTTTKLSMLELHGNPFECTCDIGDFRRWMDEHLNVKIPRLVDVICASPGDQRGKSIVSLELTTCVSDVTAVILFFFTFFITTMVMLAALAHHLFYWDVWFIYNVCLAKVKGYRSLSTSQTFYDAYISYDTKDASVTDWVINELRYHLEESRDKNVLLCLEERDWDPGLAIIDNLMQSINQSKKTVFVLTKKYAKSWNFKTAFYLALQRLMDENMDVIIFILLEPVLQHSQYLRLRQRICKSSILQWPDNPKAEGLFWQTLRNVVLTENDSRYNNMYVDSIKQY
Type: cell-based
Procedure, shortened: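 HEK-Blue cells overexpressing human TLR7, TLR8 or TLR9 carry a SEAP reporter driven by NF-κB/AP-1 sites. Compounds (0.05 nM–50 μM) were preincubated 30 min at room temperature, then cells were stimulated with gardiquimod 7.5 μM (TLR7), R848 15.9 μM (TLR8) or ODN2006 5 nM (TLR9) for 22 h at 37 °C.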

SMILES	IC50 [nM]
Cc1cc(-c2ccc3c(c2)[nH]c(=O)n3C2CCN(CC(=O)N(C)C)CC2)cn2ncnc12 [Example 90, N,N-dimethyl-2-(4-(5-(8-methyl-[1,2,4]triazolo[1,5-a]pyridin-6-yl)-2-oxo-2,3-dihydro-1H-benzo[d]imidazol-1-yl)piperidin-1-yl)acetamide]	> 3130
Cc1cc2c(cc1-c1cc(C)c3ncnn3c1)[nH]c(=O)n2C1CCN(CC(=O)N(C)C)CC1 [Example 91, N,N-dimethyl-2-(4-(6-methyl-5-(8-methyl-[1,2,4]triazolo[1,5-a]pyridin-6-yl)-2-oxo-2,3-dihydro-1H-benzo[d]imidazol-1-yl)piperidin-1-yl)acetamide]	> 3130
Cc1cc2c(cc1-c1cc(C)c3ncnn3c1)[nH]c(=O)n2[C@H]1CCCN(CC(N)=O)C1 [Example 92, (S)-2-(3-(6-methyl-5-(8-methyl-[1,2,4]triazolo[1,5-a]pyridin-6-yl)-2-oxo-2,3-dihydro-1H-benzo[d]imidazol-1-yl)piperidin-1-yl)acetamide]	177
Cc1cc2c(cc1-c1cc(C)c3ncnn3c1)[nH]c(=O)n2[C@H]1CCCN(CC(=O)N(C)C)C1 [Example 93, (S)—N,N-dimethyl-2-(3-(6-methyl-5-(8-methyl-[1,2,4]triazolo[1,5-a]pyridin-6-yl)-2-oxo-2,3-dihydro-1H-benzo[d]imidazol-1-yl)piperidin-1-yl)acetamide]	105

— patent US12187723B2 (BRISTOL-MYERS SQUIBB COMPANY, priority 2019, dated 2025)
